Measurements as given in ChEMBL document CHEMBL6153017, “Progress on the mechanism of natural products alleviating androgenetic alopecia” (2024).

Columns and labels:
Format in all cases: functional
[1] = test system: Hair follicle; assay: Upregulation of SHH mRNA expression in human hair follicle assessed as fold change at 0.5 uM measured for 48 hrs by qRT-PCR analysis
[2] = test system: Hair follicle; assay: Upregulation of PTCH mRNA expression in human hair follicle assessed as fold change at 0.5 uM measured for 48 hrs by qRT-PCR analysis
[3] = test system: Hair follicle; assay: Upregulation of Smo mRNA expression in human hair follicle assessed as fold change at 0.5 uM measured for 48 hrs by qRT-PCR analysis
[4] = test system: Hair follicle; assay: Upregulation of Gli mRNA expression in human hair follicle assessed as fold change at 0.5 uM measured for 48 hrs by qRT-PCR analysis
[5] = test system: Hair follicle; assay: Upregulation of RBPJ mRNA expression in human hair follicle assessed as fold change at 5 ug/ml; details: dose 5 µg/ml

O=C(O[C@@H]1Cc2c(O)cc(O)cc2O[C@@H]1c1cc(O)c(O)c(O)c1)c1cc(O)c(O)c(O)c1 [EPIGALOCATECHIN GALLATE]
fold change (FC) [1]: 4.48 | fold change (FC) [2]: 4.18 | fold change (FC) [3]: 4.71 | fold change (FC) [4]: 1.67 | fold change (FC) [5]: 7
